For assay [1], the target named is T1, wild type human RORγt LBD (Homo sapiens, UniProt P51449).
T1 construct: expressed in transfected cells; host or cells: HEK293T
T1 sequence (P51449 258-518): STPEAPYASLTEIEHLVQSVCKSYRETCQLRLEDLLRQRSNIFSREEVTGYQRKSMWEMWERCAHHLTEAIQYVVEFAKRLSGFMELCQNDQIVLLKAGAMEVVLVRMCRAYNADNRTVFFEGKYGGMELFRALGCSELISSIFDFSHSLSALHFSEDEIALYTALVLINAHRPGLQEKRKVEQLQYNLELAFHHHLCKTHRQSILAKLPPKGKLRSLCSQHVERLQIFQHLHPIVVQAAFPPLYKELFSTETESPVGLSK
The experiment in a line: RORγt (LBD) Reporter Assay (GAL4-luciferase, HEK293T cells). It counts as cell-based. The conditions noted are these: for inhibition at 6 µM: HEK-293T, read-out: RORγt (LBD) Reporter Assay, % inhibition @ 6 µM, 6 µM compound concentration; for RORγt (LBD) Reporter Assay, % inhibition @ 6 µM: 6 µM compound concentration.

Assay [2] addresses T2, wild type human RORγt ligand binding domain (RORyt LBD) (Homo sapiens, UniProt P51449).
T2 construct: His-tag (N); TurboTEV protease cleavage site (ENLYFQG) (N); made in house; host or cells: E. coli (pHIS1, modified pET vector)
T2 sequence (P51449 258-518): T1 sequence (P51449 258-518)
Put plainly: RORγt ThermoFluor assay (thermal shift, binding affinity KD). Background: Differential scanning fluorimetry follows unfolding on heating by fluorescence.

Setting [3] is: HEK293T cells, value after the comma with ∼, > or < could not be included in the average.

pIC50, pKd: −log10 of the molar value. Where a name gives a salt, the structure may show the parent alone. Read-outs that look alike come from different tables or passages of the source.

The values that follow come from EP3057951B1, “METHYLENE LINKED QUINOLINYL MODULATORS OF ROR-GAMMA-T” (Janssen Pharmaceutica NV, priority 2013, dated 2015).

The pIC50 is the negative decadic logarithm of the IC50, by convention in mol/L. Usually pKd stands for −log10 of the Kd, conventionally taken in molar units. The compound `COc1nc2ccc(C(O)(c3cnnn3C)C3CCOCC3)cc2c(Cl)c1Cc1ccc(C(F)(F)F)cc1` (single isomer, unassigned) [Example 85b, (4-Chloro-2-methoxy-3-(4-(trifluoromethyl)benzyl)quinolin-6-yl)(1-methyl-1H-1,2,3-triazol-5-yl)(tetrahydro-2H-pyran-4-yl)methanol] gave a pIC50 in assay [1] (setting [3]) of 8.89. For the same compound, the inhibition at 6 µM in assay [1] is 99%. In addition, the pKd in assay [2] was 9.51.
Turning to `COc1nc2ccc(C(O)(c3ccc(Cl)cc3)c3cncn3C)cc2c(C#N)c1Cc1ccc(C(F)(F)F)cc1` (single isomer, unassigned) [Example 55c, 6-((4-Chlorophenyl)(hydroxy)(1-methyl-1H-imidazol-5-yl)methyl)-2-methoxy-3-(4-(trifluoromethyl)benzyl)quinoline-4-carbonitrile], the “RORγt (LBD) Reporter Assay, % inhibition @ 6 µM” value (“RORγt … % inhibition @ 6 µM” below) in assay [1] (6 µM) turned out to be 100%. This compound had a pIC50 in assay [1] (setting [3]) of 7.03. Besides, the pKd in assay [2] is 8.35.
As to `COC1CN(c2nc3ccc(C(O)(c4ccc(C(F)(F)F)nc4)c4cncn4C)cc3c(Cl)c2Cc2ccc(-n3cccn3)cc2)C1` (single isomer, unassigned) [Example 133b, {4-Chloro-2-(3-methoxyazetidin-1-yl)-3-[4-(1H-pyrazol-1-yl)benzyl]quinolin-6-yl}(1-methyl-1H-imidazol-5-yl)[6-(trifluoromethyl)pyridin-3-yl]methanol], in assay [1] (HEK293T cells), the pIC50 was 6.08 and the inhibition at 6 µM is 99%. Moreover, the pKd in assay [2] is 6.48.
For the compound `COc1nc2ccc(C(O)(c3ccc(Cl)cc3)c3cncn3C)cc2c(C#N)c1Cc1ccc(C(F)(F)F)cc1` (single isomer, unassigned) [Example 55b, 6-((4-Chlorophenyl)(hydroxy)(1-methyl-1H-imidazol-5-yl)methyl)-2-methoxy-3-(4-(trifluoromethyl)benzyl)quinoline-4-carbonitrile], the pIC50 in assay [1] (setting [3]) was 6.30. The inhibition at 6 µM in assay [1] came out at 96%. Also, the pKd in assay [2] is 6.28.
Turning to `CC(=O)N1CCC(C(O)(c2ccccc2)c2ccc3nc(Cl)c(Cc4cncnc4)c(OC(F)F)c3c2)CC1` (single isomer, unassigned) [Example 73c, 1-(4-((2-Chloro-4-(difluoromethoxy)-3-(pyrimidin-5-ylmethyl)quinolin-6-yl)(hydroxy)(phenyl)methyl)piperidin-1-yl)ethanone], the “RORγt … % inhibition @ 6 µM” value in assay [1] (6 µM) worked out at 21%. This compound also gave a pIC50 in assay [1] (setting [3]) of less than 5.22. The pKd in assay [2] is 6.32.
On to “3-((4-Chloro-6-((4-chlorophenyl)(hydroxy)(1-methyl-1H-imidazol-5-yl)methyl)-2-methoxyquinolin-3-yl)methyl)benzonitrile•TFA [Example 70]”, for which the “RORγt … % inhibition @ 6 µM” value in assay [1] was determined as 94%. In assay [1] (setting [3]), this compound gave a negative-log IC50 (pIC50) of 6.37. Also, in assay [2], the pKd was 6.92.
For the compound `COc1c(Cc2ccccc2)c(C(F)(F)F)nc2ccc(C(O)(c3ccccn3)c3cncn3C)cc12` (racemic) [Example 98a, (3-Benzyl-4-methoxy-2-(trifluoromethyl)quinolin-6-yl)(1-methyl-1H-imidazol-5-yl)(pyridin-2-yl)methanol•TFA], the pIC50 in assay [1] (setting [3]) is 6.08. The inhibition at 6 µM in assay [1] worked out at 101%. Further, in assay [2], the pKd is 6.23.
The compound `COc1nc2ccc(C(O)(c3sc(C)nc3C)c3cnnn3C)cc2cc1Cc1ccc(C(F)(F)F)cc1` (racemic) [Example 92a, (2,4-Dimethylthiazol-5-yl)(2-methoxy-3-(4-(trifluoromethyl)benzyl)quinolin-6-yl)(1-methyl-1H-1,2,3-triazol-5-yl)methanol] had a pIC50 in assay [1] (setting [3]) of 7.10. Moreover, the inhibition at 6 µM in assay [1] was 101%. In assay [2], the pKd is 7.04.
For the compound `COc1nc2ccc(C(O)(c3cccnc3)c3ccc(Cl)c(Cl)c3)cc2c(Cl)c1Cc1ccc(-n2cccn2)cc1` (stereo not drawn) [Example 161a, (3-(4-(1H-Pyrazol-1-yl)benzyl)-4-chloro-2-methoxyquinolin-6-yl)(3,4-dichlorophenyl)(pyridin-3-yl)methanol], in assay [1] (HEK293T cells), the pIC50 is 7.24 and the inhibition at 6 µM was found to be 96%. In assay [2], the pKd was 7.82.
For the compound `COc1nc2ccc(C(O)(c3sc(C)nc3C)c3cnnn3C)cc2cc1Cc1ccc(C(F)(F)F)cc1` (single isomer, unassigned) [Example 92b, (2,4-Dimethylthiazol-5-yl)(2-methoxy-3-(4-(trifluoromethyl)benzyl)quinolin-6-yl)(1-methyl-1H-1,2,3-triazol-5-yl)methanol], the negative-log IC50 (pIC50) in assay [1] (setting [3]) is 5.55. For the same compound, the inhibition at 6 µM in assay [1] was determined as 79%. Moreover, the pKd in assay [2] is 5.70.
Compound `Cc1ccc(C(O)(c2ccc3nc(C)c(Cc4ccc(C(F)(F)F)cc4)c(Cl)c3c2)c2cnnn2C)c(C)n1` (stereo not drawn) [Example 28a, (4-Chloro-2-methyl-3-(4-(trifluoromethyl)benzyl)quinolin-6-yl)(2,6-dimethylpyridin-3-yl)(1-methyl-1H-1,2,3-triazol-5-yl)methanol] had a pIC50 in assay [1] (setting [3]) of 7.96. Moreover, in assay [1], the inhibition at 6 µM was determined as 99%. Further, in assay [2], the pKd was 9.60.
`COCCOc1nc2ccc(C(O)(c3ccc(Cl)cc3)c3cncn3C)cc2c(Cl)c1Cc1ccc(-n2cccn2)cc1` (stereo not drawn) [Example 56] had a pIC50 in assay [1] (setting [3]) of 6.35. In addition, the inhibition at 6 µM in assay [1] was found to be 101%. The negative logarithm of the Kd (pKd) in assay [2] is 6.70.
Regarding `COc1nc2ccc(C(O)(c3ncccn3)c3cncn3C)cc2c(Cl)c1Cc1ccc(-n2cccn2)cc1` (single isomer, unassigned) [Example 131b, {4-Chloro-2-methoxy-3-[4-(1H-pyrazol-1-yl)benzyl]quinolin-6-yl}(1-methyl-1H-imidazol-5-yl)pyrimidin-2-ylmethanol], the “RORγt … % inhibition @ 6 µM” value in assay [1] (HEK293T cells, 6 µM) was determined as 59%. In addition, the pIC50 in assay [1] (HEK293T cells) is approximately 5.22. In addition, the pKd in assay [2] was 5.05.
With `COc1nc2ccc(C(N)(c3ccc(C(F)(F)F)nc3)c3cncn3C)cc2c(Cl)c1Cc1cc2ccccc2s1` (racemic) [Example 71a, (3-(Benzo[b]thiophen-2-ylmethyl)4-chloro-2-methoxyquinolin-6-yl)(1-methyl-1H-imidazol-5-yl)(6-(trifluoromethyl)pyridin-3-yl)methanamine], the pIC50 in assay [1] (setting [3]) is 6.68. Besides, the inhibition at 6 µM in assay [1] came out at 98%. The pKd in assay [2] was 7.21.
On to `COc1nc2ccc(C(O)(c3ccc(F)cc3)c3cncn3C)cc2c(Cl)c1Cc1ccc(-n2cccn2)cc1` (single isomer, unassigned) [Example 160c, (3-(4-(1H-Pyrazol-1-yl)benzyl)-4-chloro-2-methoxyquinolin-6-yl)(4-fluorophenyl)(1-methyl-1H-imidazol-5-yl)methanol], for which, in assay [1] (HEK293T cells, 6 µM), the “RORγt … % inhibition @ 6 µM” value came to 98%. The pIC50 in assay [1] (HEK293T cells) was 7.33. Further, the pKd in assay [2] is 7.92.
`Cc1ccc(C(O)(c2ccc3nc(N4CC(F)(F)C4)c(Cc4ccc(C(F)(F)F)cc4)c(Cl)c3c2)c2cnnn2C)c(C)n1` (single isomer, unassigned) [Example 148b, {4-Chloro-2-(3,3-difluoroazetidin-1-yl)-3-[4-(trifluoromethyl)benzyl]quinolin-6-yl}(2,6-dimethylpyridin-3-yl)(1-methyl-1H-1,2,3-triazol-5-yl)methanol]: in assay [1] (HEK293T cells), the pIC50 is 6.34 and the inhibition at 6 µM worked out at 97%. Further, the pKd in assay [2] was 7.25.
Take `CC(=O)N1CCC(C(O)(c2ccc(F)cc2)c2ccc3nc(OC(F)F)c(Cc4cncnc4)c(OC(F)F)c3c2)CC1` (stereo not drawn) [Example 72, 1-(4-((2,4-bis(Difluoromethoxy)-3-(pyrimidin-5-ylmethyl)quinolin-6-yl)(4-fluorophenyl)(hydroxy)methyl)piperidin-1-yl)ethanone]: the pIC50 in assay [1] (setting [3]) was 5.92. Further, in assay [1], the inhibition at 6 µM worked out at 53%. Moreover, the pKd in assay [2] was 5.96.
With `COc1nc2ccc(C(O)(c3ccc(F)cc3)c3cncn3C)cc2c(Cl)c1Cc1ccc(-n2cccn2)cc1` (single isomer, unassigned) [Example 160b, (3-(4-(1H-Pyrazol-1-yl)benzyl)-4-chloro-2-methoxyquinolin-6-yl)(4-fluorophenyl)(1-methyl-1H-imidazol-5-yl)methanol], in assay [1] (HEK293T cells), the negative-log IC50 (pIC50) is 6.17 and the inhibition at 6 µM was determined as 105%. For the same compound, in assay [2], the pKd was 6.34.
Take `COc1nc2ccc(C(O)(c3cnnn3C)C3CNC3)cc2c(Cl)c1Cc1ccc(C(F)(F)F)cc1` (stereo not drawn) [Example 124, Azetidin-3-yl(4-chloro-2-methoxy-3-(4-(trifluoromethyl)benzyl)quinolin-6-yl)(1-methyl-1H-1,2,3-triazol-5-yl)methanol]: in assay [1] (HEK293T cells), the pIC50 is 6.17 and the inhibition at 6 µM stood at 93%. Moreover, in assay [2], the pKd is 6.62.
As for `COc1nc2ccc(C(O)(c3ccc(C)nc3C)c3cnnn3C)cc2c(Cl)c1Cc1ccc(N(C)C)cc1` (single isomer, unassigned) [Example 24c, (4-Chloro-3-(4-(dimethylamino)benzyl)-2-methoxyquinolin-6-yl)(2,6-dimethylpyridin-3-yl)(1-methyl-1H-1,2,3-triazol-5-yl)methanol], in assay [1] (6 µM), the “RORγt … % inhibition @ 6 µM” value is on record as 97%. The pIC50 in assay [1] (setting [3]) is 7.60. For the same compound, the pKd in assay [2] was 9.49.
